From patent US7667052B2 (Eisai R&D Management Co., Ltd., priority 2003, dated 2010) come the findings set out here.

The structures appear in SMILES notation.

Usually IC50 stands for the concentration that gives 50% inhibition.

For this assay, the system named is transcription from VEGF promoter. As to the kind of experiment: VEGF transcription-suppressing activity, VEGF-PLAP reporter in U251/1-8 cell. In kind it is cell-based. The settings on record: Homo sapiens, U-251; U251/1-8 cell, PLAP activity, low oxygen 18 hours; read-out: IC50 values of VEGF transcription-suppressing activity (range given). An excerpt: In order to prepare reporter system reflecting transcription from VEGF promoter, VEGF promoter sequence was cloned, and inserted in secretory alkali phosphatase (PLAP) vector to construct reporter vector.
In order to obtain the promoter region of human VEGF, VEGF genome was cloned from phage library. PCR primers having the sequences described in Sequence Numbers 1 and 2 were designed based on VEGF cDNA (GenBank accession number: X62568) and a fragment having about 340 bp was obtained by carrying out PCR. Human genome phage library (Human genomic library, Clontech Co.) was screened using this as a probe to obtain pUC18-VEGFA containing about 5.4 kb of VEGF 5′ flanking region. The pUC18-VEGFA was cleaved by KpnI/NheI, VEGF promoter region of about 2.3 kb obtained was inserted in the multi cloning site KpnI/NheI of secretory alkali phosphatase (PLAP) vector (Goto et al, Mol. Pharmacol., 49, 860-873, 1996), and thus, VEGF-PLAP vector was constructed.
The above-mentioned VEGF-PLAP vector was introduced in the U251 cell cultured in the DULBECCO-modified eagle medium (DMEM; manufactured by SIGMA Co., Ltd.) containing 10% fetal calf serum, and cultured in the presence of 1 mg/ml G418 (Merck Co.) to establish G418 resistant stable clone (U251/1-8 cell).
It was confirmed that U251/1-8 cell secreted PLAP under low oxygen (2% O2 incubator) in the same manner as in the report (Cell. Mol. Biol. Res. 40, 35-39, 1994) and was a reporter system reflecting the transcription from VEGF promoter. The screening of the compound suppressing VEGF production which was induced by low oxygen stimulation was carried out below using the clone.
In order to remove the influence of alkaline phosphates in serum, U251/1-8 cell was rinsed twice with the adequate amount of PBS (Phosphate buffered saline), diluted in the DMEM medium containing 10% of serum in which alkaline phosphates was inactivated by the treatment of 60° C. for 20 min., and dispensed in 96-well plates by 4×10^4 cells/180 μl.
After culturing at 37° C. overnight in a CO2 incubator (5% CO2), 20 μL of the above-mentioned incubation solution containing the test compound diluted with 3-fold succession was added, and then they were incubated in a low oxygen ([…]) incubator for 18 hours. With respect to the PLAP activity in the culture supernatants, 10 μl of the supernatants was added to 50 μl of 0.28 M Na2CO3—NaHCO3 buffer solution (pH 10.0, 8.0 mM MgSO4), and finally 50 μl of alkaline phosphatase substrate (LUMISTEIN, Genomescience Co.) was added. After reacting for one hour, the alkaline phosphatase activity of the PLAP was measured by detecting the chemical luminescence by a micro plate reader (Perkin-Elmer Co.).
The PLAP activity under usual oxygen was set as 0%, the PLAP activity of cell which was treated under low oxygen was set as 100%, and the concentration suppressing the PLAP activity by 50% was set as the IC50 value of PLAP.
Consider `CCC(O)C(C)C1OC1CC(C)/C=C/C=C(\C)C1OC(=O)CC(OC(=O)N2CCC(N3CCCCC3)CC2)CCC(C)(O)C(OC(C)=O)/C=C/C1C` (stereo not shown) [B37-1], for which the IC50 lay within 0.5 to 100 nM.

Turning to `CCC(O)C(C)C1OC1CC(C)/C=C/C=C(\C)C1OC(=O)CC(O)CCC(C)(O)C(OC(=O)NCCN(C)C)/C=C/C1C` (stereo not shown) [B54, (8E,12E,14E)-7-(N-(2-Dimethylamino)ethyl)carbamoyloxy-3,6,21-trihydroxy-6,10,12,16,20-pentamethyl-18,19-epoxytricosa-8,12,14-trien-11-olide], the IC50 was in the range of 0.5 to 100 nM.

For the compound `CCC(O)C(C)C1OC1CC(C)/C=C/C=C(\C)C1OC(=O)CC(O)CCC(C)(O)C(OC(=O)c2ccccc2)/C=C/C1C` (stereo not shown) [B41, (8E,12E,14E)-7-Benzoyloxy-3,6,21-trihydroxy-6,10,12,16,20-pentamethyl-18,19-epoxytricosa-8,12,14-trien-11-olide], the IC50 is 0.5 to 100 nM.

For the compound `CCC(O)C(C)C1OC1CC(C)/C=C/C=C(\C)C1OC(=O)CC(O)CCC(C)(O)C(OC(=O)NCCCN2CCN(C)CC2)/C=C/C1C` (stereo not shown) [B78, (8E,12E,14E)-3,6,21-Trihydroxy-6,10,12,16,20-pentamethyl-7-N-(3-(4-methylpiperazin-1-yl)propyl)carbamoyloxy-18,19-epoxytricosa-8,12,14-trien-11-olide], the IC50 is 0.5 to 100 nM.

For the compound `CCC(O)C(C)C1OC1CC(C)/C=C/C=C(\C)C1OC(=O)CC(O)CCC(C)(O)C(OC(=O)CCl)/C=C/C1C` (stereo not shown) [B39, (8E,12E,14E)-7-Chloroacetoxy-3,6,21-trihydroxy-6,10,12,16,20-pentamethyl-18,19-epoxytricosa-8,12,14-trien-11-olide], the IC50 was 0.5 to 100 nM.

With `CCC(OC(=O)N1CCN(C)CC1)C(C)C1OC1CC(C)/C=C/C=C(\C)C1OC(=O)CC(O)CCC(C)(O)C(OC(C)=O)/C=C/C1C` (stereo not shown) [B36-2, (8E,12E,14E)-7-acetoxy-21-((4-methylpiperazin-1-yl)carbonyl)oxy-3,6-dihydroxy-6,10,12,16,20-pentamethyl-18,19-epoxytricosa-8,12,14-trien-11-olide], the IC50 was 0.5 to 100 nM.

As to `CCC(OC)C(C)C1OC1CC(C)/C=C/C=C(\C)C1OC(=O)CC(O)CCC(C)(OC)C(OC(C)=O)/C=C/C1C` (stereo not shown) [B8-2, (8E,12E,14E)-7-acetoxy-3-hydroxy-6,21-dimethoxy-6,10,12,16,20-pentamethyl-18,19-epoxytricosa-8,12,14-trien-11-olide], the IC50 was 0.5 to 100 nM.

For the compound `CCC(O)C(C)C1OC1CC(C)/C=C/C=C(\C)C1OC(=O)CC(O)CCC(C)(O)C(OC(=O)NCc2cccnc2)/C=C/C1C` (stereo not shown) [B57, (8E,12E,14E)-3,6,21-Trihydroxy-6,10,12,16,20-pentamethyl-7-N-(3-pyridylmethyl)carbamoyloxy-18,19-epoxytricosa-8,12,14-trien-11-olide], the IC50 is 0.5 to 100 nM.

Regarding `CCC(OC(C)=O)C(C)C(OC(C)=O)C(Cl)CC(C)/C=C/C=C(\C)C1OC(=O)CC(O)CCC(C)(O)C(OC(C)=O)/C=C/C1C` (stereo not shown) [B21-4, (8E,12E,14E)-7,19,21-triacetoxy-18-chloro-3,6-dihydroxy-6,10,12,16,20-pentamethyltricosa-8,12,14-trien-11-olide], the IC50 lay within 0.5 to 100 nM.

For the compound `CCC(O)C(C)C1OC1CC(C)/C=C/C=C(\C)C1OC(=O)CC(O)CCC(C)(O)C(OC(=O)N2CCNCC2)/C=C/C1C` (stereo not shown) [B52, (8E,12E,14E)-3,6,21-Trihydroxy-6,10,12,16,20-pentamethyl-7-((piperazin-1-yl)carbonyl)oxy-18,19-epoxytricosa-8,12,14-trien-11-olide], the IC50 was 0.5 to 100 nM.

Take `CCC(O)C(C)C(O)C(Br)CC(C)/C=C/C=C(\C)C1OC(=O)CC(O)CCC(C)(O)C(OC(C)=O)/C=C/C1C` (stereo not shown) [B2-1, (8E,12E,14E)-7-Acetoxy-18-bromo-3,6,19,21-tetrahydroxy-6,10,12,16,20-pentamethyltricosa-8,12,14-trien-11-olide]: the IC50 was 0.5 to 100 nM.

Consider `CCC(O)C(C)C1OC1CC(C)/C=C/C=C(\C)C1OC(=O)CC(O)CCC(C)(O)C(OC(=O)N2CCOCC2)/C=C/C1C` (stereo not shown) [B49, (8E,12E,14E)-3,6,21-Trihydroxy-6,10,12,16,20-pentamethyl-7-((morpholin-4-yl)carbonyl)oxy-18,19-epoxytricosa-8,12,14-trien-11-olide], for which the IC50 was in the range of 0.5 to 100 nM.

For `CCC(OC(N)=O)C(C)C1OC1CC(C)/C=C/C=C(\C)C1OC(=O)CC(OC(N)=O)CCC(C)(O)C(OC(C)=O)/C=C/C1C` (stereo not shown) [B33-1, (8E,12E,14E)-7-Acetoxy-3,21-dicarbamoyloxy-6-hydroxy-6,10,12,16,20-pentamethyl-18,19-epoxytricosa-8,12,14-trien-11-olide], the IC50 fell in the range of 0.5 to 100 nM.

On to `CCC(O)C(C)C1OC1CC(C)/C=C/C=C(\C)C1OC(=O)CC(O)CCC(C)(O)C(OC(=O)N2CC(C)NCC2C)/C=C/C1C` (stereo not shown) [B67, (8E,12E,14E)-3,6,21-Trihydroxy-6,10,12,16,20-pentamethyl-7-((2,5-dimethylpiperazin-1-yl)carbonyl)oxy-18,19-epoxytricosa-8,12,14-trien-11-olide], for which the IC50 is 0.5 to 100 nM.

Take `CCC(OC(=O)CN(C)C)C(C)C1OC1CC(C)/C=C/C=C(\C)C1OC(=O)CC(O)CCC(C)(O)C(OC(C)=O)/C=C/C1C` (stereo not shown) [B28, (8E,12E,14E)-7-Acetoxy-3,6-dihydroxy-6,10,12,16,20-pentamethyl-21-dimethylaminoacetoxy-18,19-epoxytricosa-8,12,14-trien-11-olide]: the IC50 lay in the range of 0.5 to 100 nM.

As for `CCC(O)C(C)C1OC1CC(C)/C=C/C=C(\C)C1OC(=O)CC(O)CCC(C)(O)C(OC(=O)N2CCC(O)CC2)/C=C/C1C` (stereo not shown) [B48, (8E,12E,14E)-3,6,21-Trihydroxy-7-((4-hydroxypiperidin-1-yl)carbonyl)oxy-6,10,12,16,20-pentamethyl-18,19-epoxytricosa-8,12,14-trien-11-olide], the IC50 is 0.5 to 100 nM.

Consider `CCC(O)C(C)C1OC1CC(C)/C=C/C=C(\C)C1OC(=O)CC(O)CCC(C)(O)C(OC(=O)N2CCN(C(C)=O)CC2)/C=C/C1C` (stereo not shown) [B51, (8E,12E,14E)-7-((4-Acetylpiperazin-1-yl)carbonyl)oxy-3,6,21-trihydroxy-6,10,12,16,20-pentamethyl-18,19-epoxytricosa-8,12,14-trien-11-olide], for which the IC50 was in the range of 0.5 to 100 nM.

With `CCC(O)C(C)C(OC(C)=O)C(Cl)CC(C)/C=C/C=C(\C)C1OC(=O)CC(OC(C)=O)CCC(C)(O)C(OC(C)=O)/C=C/C1C` (stereo not shown) [B21-3, (8E,12E,14E)-3,7,19-triacetoxy-18-chloro-6,21-dihydroxy-6,10,12,16,20-pentamethyltricosa-8,12,14-trien-11-olide], the IC50 lay in the range of 0.5 to 100 nM.

For the compound `CCC(O)C(C)C1OC1CC(C)/C=C/C=C(\C)C1OC(=O)CC(O)CCC(C)(O)C(OC(=O)N(C)C2CCN(C)CC2)/C=C/C1C` (stereo not shown) [B80, (8E,12E,14E)-3,6,21-Trihydroxy-6,10,12,16,20-pentamethyl-7-N-methyl-N-(1-methylpiperidin-4-yl)carbamoyloxy-18,19-epoxytricosa-8,12,14-trien-11-olide], the IC50 fell in the range of 0.5 to 100 nM.

`CCC(O)C(C)C1OC1CC(C)/C=C/C=C(\C)C1OC(=O)CC(O)CCC(C)(O)C(OC(=O)N(C)C)/C=C/C1C` (stereo not shown) [B46, (8E,12E,14E)-3,6,21-Trihydroxy-6,10,12,16,20-pentamethyl-7-N,N-dimethylcarbamoyloxy-18,19-epoxytricosa-8,12,14-trien-11-olide]: the IC50 lay in the range of 0.5 to 100 nM.

In the case of `CCC(OC(=O)c1ccccc1)C(C)C1OC1CC(C)/C=C/C=C(\C)C1OC(=O)CC(O)CCC(C)(O)C(OC(C)=O)/C=C/C1C` (stereo not shown) [B30-3, (8E,12E,14E)-7-acetoxy-21-benzoloxy-3,6-dihydroxy-6,10,12,16,20-pentamethyl-18,19-epoxytricosa-8,12,14-trien-11-olide], the IC50 fell in the range of 0.5 to 100 nM.

Take `CCC(O)C(C)C1OC1CC(C)/C=C/C=C(\C)C1OC(=O)CC(O)CCC(C)(O)C(OC(=O)NC2CC(C)(C)N(C)C(C)(C)C2)/C=C/C1C` (stereo not shown) [B82, (8E,12E,14E)-3,6,21-Trihydroxy-6,10,12,16,20-pentamethyl-7-N-(1,2,2,6,6-pentamethylpiperidin-4-yl)carbamoyloxy-18,19-epoxytricosa-8,12,14-trien-11-olide]: the IC50 lay within 0.5 to 100 nM.
